Measurements as given in patent publication US7326717B2, “Pyrimidine n-oxide compounds for stimulating the growth of keratin fibers and/or reducing loss thereof” (L'Oreal, priority 1930, dated 2008).
pIC50: −log10 of the molar value.

Tests used:
type L calcium-channel = settings: read-out: IC50Ca2+ (concentration that inhibits 50% of the release of Ca2+); cited from earlier work
lysyl-hydroxylase = settings: described in WO 96/09048; cited from earlier work
[1] = tested on: inducible NO-synthase (NOS2); test: Modulation of the induction of NOS2 on normal human keratinocytes (NO-donor activity, nitrite/nitrate measurement); assay type: cell-based; settings: for % inhibition: nitrites and nitrates measured; for NO-donating effect: conclusion from the table
Experimental: The activity of compounds A and A′ on inducible NO-synthase was evaluated in the test described by Heck et al. (J. B. C., Vol. 267, No. 30, 21277-21280, 25 Oct. 1992), test of “Modulation of the induction of NOS2 (Inducible Nitric Oxide Synthase) on normal human keratinocytes”. The aim of this test is to evaluate the final nitrate and nitrite concentration, after stimulation of NO-synthase 2 or application of an NO donor; it is performed by comparison with the stimulation of cytokine-inducible NO-synthase. The final nitrate and nitrite concentration corresponds to the concentration of NO released.
The test is performed on a culture of normal human keratinocytes obtained from samples. The induction of inducible NO-synthase (NOS2) was brought about by the addition of a combination of several cytokines to the culture medium. The test products were applied at three concentrations ranging from […] to 1000 μM.
The following controls were introduced into the test: • A: Positive control (induction of the enzyme on stimulated cells): mixtures of interferon-γ (1000 μ/ml) and of interleukin 1-β (100 μ/ml) corresponding to […]; • B: Basal control of the unstimulated cells (without cytokines), corresponding to […].
To determine the activity of the test products, the amount of stable NO reaction products (nitrites and nitrates) is measured using the “Nitric Colorimetric Assay” kit sold by the company Boehringer under the reference 1756.28.
The compounds were tested at concentrations of 100 μM, 500 μM and 1000 μM in ethanol.

[2] = tested on: lysyl-hydroxylase messenger RNA; test: Inhibition of the expression of LH (RT-PCR) in normal human dermal fibroblasts; assay type: cell-based; settings: for inhibition of the expression of lysyl-hydroxylase messenger RNA: human fibroblasts in culture, compound 1′ at 10 μM; for LH/actine ratio: percentage of expression of LH over β-Actin internal standard; for LH/actine ratio / LH/collagen ratio: control = 100, NHDF treated 6 hours; for LH/collagen ratio: percentage of expression of LH relative to collagen messenger RNA
Experimental: Normal human dermal fibroblasts (NHDF) are precultured at high density for 48 hours in MEM199 medium (Gibco) supplemented with 1% foetal calf serum and then treated or not treated with compound 1′ or 1 for 6 hours. The cell carpets are then washed with phosphate-buffered saline (PBS) and then frozen in Tri-reagent medium (Sigma). The total RNAs obtained are extracted with Tri-reagent (Sigma) according to the supplier's protocol. A further extraction is performed using chloroform and the RNAs are then precipitated from isopropanol. After removal of the contaminating traces of DNA by treatment with the DNA-free system (Ambion), a reverse transcription of the RNAs into complementary DNA is performed in the presence of oligo dT and the enzyme superscript II (Gibco).
A pair of primers allowing the amplification of specific LH fragments (516 bp; Mahéet al., 1996, Skin Pharmacol. 9, 177-183) and of specific primers of the sequence of collagen I (420 pb) and β-Actin (500 bp, internal reaction standard) were used for the polymerization chain reaction (PCR) with the PCR Supermix system (Gibco) under the following conditions: 94° C. for 2 minutes and then 25 times (95° C.-1 min, 55° C.-1 min, 72° C.-2 min), the chain reaction being terminated by an elongation cycle of 7 minutes at 72° C.
The amplified fragments are then analysed by electrophoresis on agarose gel (1.5%) in the presence of ethidium bromide. The images were captured on GelPrint 2000i (Biophotonics Corp); the densitometric analyses were obtained using the One D-Scan software (Scanalytics).
The results are expressed as a percentage of expression of LH over the β-Actin internal standard (LH/actine) or relative to the collagen messenger RNA (LH/collagen). A reduction of one or of the two percentages indicates a transcriptional inhibition of the relative expression of lysyl hydroxylase and, by analogy, with the molecule 2-4 DPO, (Mahéet al. 1996, Skin Pharmacol. 9. 177-183) a possible use for limiting the abnormal crosslinking of collagen in alopecia.

[3] = 100 μM in ethanol, 100 = cytokine-stimulated control A, 0 = unstimulated control B

Structure (SMILES) | % inhibition [1, 3] [%] | NO-donating effect [1] | inhibition of the expression of lysyl-hydroxylase messenger RNA [2] | LH/actine ratio [2] [%] | LH/collagen ratio [2] [%] | other results
COc1ccc(CCN(C)CCCC(C#N)(c2ccc(OC)c(OC)c2)C(C)C)cc1OC (centres unmarked) [verapamil] | – | – | – | – | – | pIC50 (type L calcium-channel): 7.42
Nc1cc[n+]([O-])c(N)n1 [aminexil, 2,4-diaminopyrimidine N-oxide] | – | – | – | – | – | inhibitory activity on the expression of lysyl-hydroxylase (lysyl-hydroxylase): has inhibitory activity on the expression of lysyl-hydroxylase
Nc1nccc(NCCCCO[N+](=O)[O-])[n+]1[O-] [Compound 1] | 0 | have an NO-donating effect | no inhibitory activity | 123 | 133 | % inhibition ([1]; 500 μM in ethanol, 100 = control A, 0 = control B, NE means no effect): 18.23%
Nc1nccc(NCCCCO)[n+]1[O-] [Compound 1′] | – | – | −24% to −36% | 64 | 76 | –
Nc1nccc(NCCCO[N+](=O)[O-])[n+]1[O-] [Compound 3] | – | have an NO-donating effect | – | – | – | –
Nc1nccc(NCCO[N+](=O)[O-])[n+]1[O-] [Compound 2] | 38.77 | have an NO-donating effect | – | – | – | –
